Test results taken from ChEMBL document CHEMBL5634092, “Design, synthesis, and biological evaluation of novel HDAC/CD13 dual inhibitors for the treatment of cancer” (Eur J Med Chem, 2023).

Legend:
Histone deacetylase 3 = Histone deacetylase 3 (Homo sapiens, UniProt O15379); assay: Inhibition of human HDAC3 using Boc-Lys (acetyl)-AMC as substrate incubated for 1 hr followed by substrate addition and further incubated for 2 hrs by fluorescence assay
Histone deacetylase 4 = Histone deacetylase 4 (Homo sapiens, UniProt P56524); assay: Inhibition of human HDAC4 using Boc-Lys (tri-fluoroacetyl)-AMC as substrate incubated for 1 hr followed by substrate addition and further incubated for 2 hrs by fluorescence assay
Histone deacetylase 7 = target: T1, Histone deacetylase 7 (Homo sapiens, UniProt Q8WUI4); assay: Inhibition of human HDAC7 using Boc-Lys (tri-fluoroacetyl)-AMC as substrate incubated for 1 hr followed by substrate addition and further incubated for 2 hrs by fluorescence assay
T1 sequence (Q8WUI4 whole entry): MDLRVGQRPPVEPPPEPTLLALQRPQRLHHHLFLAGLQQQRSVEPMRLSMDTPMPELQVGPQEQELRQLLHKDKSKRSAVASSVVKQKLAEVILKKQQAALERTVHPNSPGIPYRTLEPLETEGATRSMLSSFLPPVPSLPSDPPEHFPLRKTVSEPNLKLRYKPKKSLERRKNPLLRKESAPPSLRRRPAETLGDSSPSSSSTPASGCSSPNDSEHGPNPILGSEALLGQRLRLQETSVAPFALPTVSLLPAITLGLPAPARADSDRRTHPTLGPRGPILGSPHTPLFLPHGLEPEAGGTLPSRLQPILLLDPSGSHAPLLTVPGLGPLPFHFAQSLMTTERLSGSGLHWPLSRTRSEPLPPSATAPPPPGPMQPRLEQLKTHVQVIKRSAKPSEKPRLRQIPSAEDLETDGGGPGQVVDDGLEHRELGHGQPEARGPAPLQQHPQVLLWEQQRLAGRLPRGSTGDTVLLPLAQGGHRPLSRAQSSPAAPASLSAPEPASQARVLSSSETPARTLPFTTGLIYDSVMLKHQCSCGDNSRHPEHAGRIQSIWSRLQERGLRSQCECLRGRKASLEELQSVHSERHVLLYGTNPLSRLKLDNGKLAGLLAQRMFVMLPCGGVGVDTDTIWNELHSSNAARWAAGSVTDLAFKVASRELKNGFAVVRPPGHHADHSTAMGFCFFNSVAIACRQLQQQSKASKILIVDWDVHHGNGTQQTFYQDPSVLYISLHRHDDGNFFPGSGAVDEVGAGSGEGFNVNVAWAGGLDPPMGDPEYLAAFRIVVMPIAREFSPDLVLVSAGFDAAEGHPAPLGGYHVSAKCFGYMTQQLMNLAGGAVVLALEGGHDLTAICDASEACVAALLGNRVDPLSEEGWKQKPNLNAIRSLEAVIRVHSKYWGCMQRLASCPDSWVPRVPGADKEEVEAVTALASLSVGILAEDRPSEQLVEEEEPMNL

Histone deacetylase 8 = target: T2, Histone deacetylase 8 (Homo sapiens, UniProt Q9BY41); assay: Inhibition of human HDAC8 using Boc-Lys (tri-fluoroacetyl)-AMC as substrate incubated for 1 hr followed by substrate addition and further incubated for 2 hrs by fluorescence assay
T2 sequence (Q9BY41 whole entry): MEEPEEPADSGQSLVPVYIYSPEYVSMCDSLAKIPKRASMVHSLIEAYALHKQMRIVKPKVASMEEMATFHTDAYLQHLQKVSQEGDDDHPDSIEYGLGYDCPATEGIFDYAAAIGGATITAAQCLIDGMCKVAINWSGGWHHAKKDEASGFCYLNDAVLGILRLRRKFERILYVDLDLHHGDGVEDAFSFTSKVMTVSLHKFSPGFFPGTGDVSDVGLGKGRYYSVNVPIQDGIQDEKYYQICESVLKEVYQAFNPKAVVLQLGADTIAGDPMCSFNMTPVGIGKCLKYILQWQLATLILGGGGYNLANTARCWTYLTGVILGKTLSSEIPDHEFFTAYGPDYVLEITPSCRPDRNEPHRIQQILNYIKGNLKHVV

Histone deacetylase 9 = Histone deacetylase 9 (Homo sapiens, UniProt Q9UKV0); assay: Inhibition of human HDAC9 using Boc-Lys (tri-fluoroacetyl)-AMC as substrate incubated for 1 hr followed by substrate addition and further incubated for 2 hrs by fluorescence assay
[1] = target: T3, Polyamine deacetylase HDAC10 (Homo sapiens, UniProt Q969S8); assay: Inhibition of human HDAC10 using Boc-Lys (tri-fluoroacetyl)-AMC as substrate incubated for 1 hr followed by substrate addition and further incubated for 2 hrs by fluorescence assay
T3 sequence (Q969S8 whole entry): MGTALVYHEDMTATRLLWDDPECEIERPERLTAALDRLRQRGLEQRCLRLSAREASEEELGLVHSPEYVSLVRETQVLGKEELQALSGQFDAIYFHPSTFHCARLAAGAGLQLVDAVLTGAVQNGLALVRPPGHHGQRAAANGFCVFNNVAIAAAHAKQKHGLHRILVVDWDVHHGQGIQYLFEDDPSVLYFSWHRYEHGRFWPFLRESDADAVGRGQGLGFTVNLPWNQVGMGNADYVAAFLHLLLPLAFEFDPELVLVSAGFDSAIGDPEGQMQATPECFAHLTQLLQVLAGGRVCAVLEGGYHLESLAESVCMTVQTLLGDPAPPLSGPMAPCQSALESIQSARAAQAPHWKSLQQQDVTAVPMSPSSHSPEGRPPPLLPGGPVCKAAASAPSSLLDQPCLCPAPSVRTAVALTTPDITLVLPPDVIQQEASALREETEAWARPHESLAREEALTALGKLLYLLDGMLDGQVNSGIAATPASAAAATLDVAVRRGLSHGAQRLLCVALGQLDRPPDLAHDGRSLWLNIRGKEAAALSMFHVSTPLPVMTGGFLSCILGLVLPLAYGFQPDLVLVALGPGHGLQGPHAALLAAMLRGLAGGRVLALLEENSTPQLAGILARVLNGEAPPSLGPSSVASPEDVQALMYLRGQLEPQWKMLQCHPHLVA

Histone deacetylase 11 = target: T4, Histone deacetylase 11 (Homo sapiens, UniProt Q96DB2); assay: Inhibition of human HDAC11 using Boc-Lys (tri-fluoroacetyl)-AMC as substrate incubated for 1 hr followed by substrate addition and further incubated for 2 hrs by fluorescence assay
T4 sequence (Q96DB2 whole entry): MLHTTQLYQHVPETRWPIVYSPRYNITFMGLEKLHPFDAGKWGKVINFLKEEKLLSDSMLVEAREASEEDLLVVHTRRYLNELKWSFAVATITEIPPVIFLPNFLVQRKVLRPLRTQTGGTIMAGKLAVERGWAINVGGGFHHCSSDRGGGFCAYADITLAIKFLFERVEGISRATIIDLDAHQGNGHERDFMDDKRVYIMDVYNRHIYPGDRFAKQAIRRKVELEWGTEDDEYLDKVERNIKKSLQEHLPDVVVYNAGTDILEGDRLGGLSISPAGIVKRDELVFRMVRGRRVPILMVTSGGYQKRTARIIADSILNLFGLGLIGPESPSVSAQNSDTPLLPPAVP

[2] = Stability of compound in human plasma at […] measured after 24 hrs by HPLC analysis; format: ADME, cell-free
[3] = Stability of compound in rat liver homogenate at 0.4 mg/mL measured after 24 hrs by HPLC analysis; format: ADME, tissue-based; settings: tissue homogenate
[4] = Stability of compound in artificial intestinal juice at 0.4 mg/mL measured after 24 hrs by HPLC analysis; format: ADME; settings: simulated gi fluid

Histone deacetylase 9, sequence (Q9UKV0 whole entry): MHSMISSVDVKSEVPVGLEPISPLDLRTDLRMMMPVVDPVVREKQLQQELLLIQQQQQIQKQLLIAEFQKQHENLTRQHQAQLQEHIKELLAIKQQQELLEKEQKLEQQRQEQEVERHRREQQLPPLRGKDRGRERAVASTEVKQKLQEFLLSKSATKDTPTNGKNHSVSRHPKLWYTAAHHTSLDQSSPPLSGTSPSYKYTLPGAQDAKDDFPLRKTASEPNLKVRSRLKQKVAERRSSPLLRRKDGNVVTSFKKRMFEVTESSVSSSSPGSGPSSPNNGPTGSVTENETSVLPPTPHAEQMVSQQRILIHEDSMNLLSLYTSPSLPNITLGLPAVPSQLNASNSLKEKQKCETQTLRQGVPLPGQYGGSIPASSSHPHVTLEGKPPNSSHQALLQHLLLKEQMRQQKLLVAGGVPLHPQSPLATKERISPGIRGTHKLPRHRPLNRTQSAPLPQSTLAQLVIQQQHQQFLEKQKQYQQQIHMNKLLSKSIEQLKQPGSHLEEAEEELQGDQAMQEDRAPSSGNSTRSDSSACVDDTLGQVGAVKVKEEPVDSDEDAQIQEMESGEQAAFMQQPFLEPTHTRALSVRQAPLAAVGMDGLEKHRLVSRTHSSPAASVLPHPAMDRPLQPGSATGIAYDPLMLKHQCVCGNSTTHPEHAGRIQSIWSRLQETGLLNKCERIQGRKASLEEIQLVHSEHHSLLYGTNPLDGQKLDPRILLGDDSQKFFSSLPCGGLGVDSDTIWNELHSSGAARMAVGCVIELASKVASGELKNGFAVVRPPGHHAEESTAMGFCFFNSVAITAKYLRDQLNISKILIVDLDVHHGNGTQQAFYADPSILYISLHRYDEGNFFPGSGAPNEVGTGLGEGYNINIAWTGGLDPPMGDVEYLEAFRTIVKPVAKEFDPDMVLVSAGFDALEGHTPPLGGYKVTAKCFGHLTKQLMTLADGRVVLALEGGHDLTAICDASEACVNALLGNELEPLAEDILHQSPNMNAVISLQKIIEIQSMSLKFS
Histone deacetylase 3, sequence (O15379 whole entry): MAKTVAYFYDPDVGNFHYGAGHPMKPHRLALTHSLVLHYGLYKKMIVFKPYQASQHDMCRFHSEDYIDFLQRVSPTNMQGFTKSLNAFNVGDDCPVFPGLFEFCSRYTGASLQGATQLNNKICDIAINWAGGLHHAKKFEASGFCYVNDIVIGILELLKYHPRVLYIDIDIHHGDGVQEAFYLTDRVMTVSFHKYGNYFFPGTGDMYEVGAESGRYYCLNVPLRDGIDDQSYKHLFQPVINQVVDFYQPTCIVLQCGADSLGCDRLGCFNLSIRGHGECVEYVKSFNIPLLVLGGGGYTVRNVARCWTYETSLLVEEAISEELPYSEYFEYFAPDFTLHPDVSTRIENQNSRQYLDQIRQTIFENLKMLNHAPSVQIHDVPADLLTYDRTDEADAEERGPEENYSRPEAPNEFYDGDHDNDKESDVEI
Histone deacetylase 4, sequence (P56524 whole entry): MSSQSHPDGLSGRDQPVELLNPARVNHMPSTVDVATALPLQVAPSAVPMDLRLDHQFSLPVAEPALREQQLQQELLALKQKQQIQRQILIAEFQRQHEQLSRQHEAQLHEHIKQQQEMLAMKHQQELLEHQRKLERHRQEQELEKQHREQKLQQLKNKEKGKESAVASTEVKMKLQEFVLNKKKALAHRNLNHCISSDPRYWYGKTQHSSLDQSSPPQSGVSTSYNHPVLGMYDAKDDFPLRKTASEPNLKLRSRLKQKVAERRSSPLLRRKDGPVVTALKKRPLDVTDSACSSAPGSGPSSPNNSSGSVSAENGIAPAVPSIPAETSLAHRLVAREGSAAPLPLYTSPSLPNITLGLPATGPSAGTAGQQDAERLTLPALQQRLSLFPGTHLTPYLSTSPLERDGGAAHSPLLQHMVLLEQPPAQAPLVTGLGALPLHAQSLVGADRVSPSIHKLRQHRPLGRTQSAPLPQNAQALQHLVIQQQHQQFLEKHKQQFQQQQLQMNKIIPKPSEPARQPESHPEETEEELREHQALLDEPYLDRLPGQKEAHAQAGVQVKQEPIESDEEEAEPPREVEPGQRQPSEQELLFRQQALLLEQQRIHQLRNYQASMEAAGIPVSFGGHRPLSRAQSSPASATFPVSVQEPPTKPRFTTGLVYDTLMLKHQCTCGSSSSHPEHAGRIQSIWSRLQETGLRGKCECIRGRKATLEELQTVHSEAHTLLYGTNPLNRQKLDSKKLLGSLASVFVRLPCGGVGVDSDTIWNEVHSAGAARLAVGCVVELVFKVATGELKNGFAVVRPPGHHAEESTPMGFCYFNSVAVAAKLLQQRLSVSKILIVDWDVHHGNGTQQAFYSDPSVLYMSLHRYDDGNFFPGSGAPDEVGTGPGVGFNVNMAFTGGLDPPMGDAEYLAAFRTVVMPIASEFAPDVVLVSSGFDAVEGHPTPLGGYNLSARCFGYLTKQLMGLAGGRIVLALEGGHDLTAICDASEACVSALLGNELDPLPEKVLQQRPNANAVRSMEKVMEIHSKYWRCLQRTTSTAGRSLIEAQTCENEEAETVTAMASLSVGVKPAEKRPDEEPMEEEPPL

CCCNNC(=O)c1ccc(CNC(=O)[C@H](CC(C)C)NC(=O)[C@@H](O)[C@H](N)Cc2ccccc2)cc1.Cl
IC50 (Histone deacetylase 3): 0.02 µM
IC50 (Histone deacetylase 4): > 10 µM
IC50 (Histone deacetylase 7): > 10 µM
IC50 (Histone deacetylase 8): 4.65 µM
IC50 (Histone deacetylase 9): > 10 µM
IC50 [1]: > 10 µM
IC50 (Histone deacetylase 11): 1.24 µM
Stability [2]: Stable
Stability [3]: Stable
Stability [4]: Stable
